Results: US12410124B2 (priority 2019, dated 2025)
Read-outs that look alike come from different tables or passages of the source.

What was measured:
[1] = tested on: midbrain CD11b; assay: Midbrain CD11b protein expression in MPTP Parkinson's disease model mouse (western-blotting); type: in vivo; details: for Expression (CD11b/GAPDH): midbrain, MPTP Parkinson's disease model mouse, western-blotting
Method: (§1) Neurotoxins can be used to establish PD animal models. Currently, 1-methyl-4-phenyl-1,2,3,6-tetrahydropyridine (MPTP) is the sole synthetic toxin which is recognized to induce PD symptoms in human and non-human primates and in mice. Using MPTP subacute modeling method, C57BL/6J male mice were intraperitoneally injected with MPTP 30 mg/kg, once a day for 5 consecutive days. The experiment animals were divided into blank control group, MPTP model group, and compound treatment group. For the […] compound treatment group, the compound was administrated by gavage for 21 consecutive days after the completion of modeling; for the MPTP model group, the normal saline was administrated by gavage for 21 consecutive days after the completion of modeling; and for the blank control group, the normal saline was first intraperitoneally injected for 5 days, and then administrated by gavage for 21 days.
(§2) Neuron-glial cell network homeostasis disorder is an important factor for the selective and progressive death of substantia nigra dopaminergic neurons in PD. In the neurotoxic effect of MPTP, the excessive activations of microglial cells and astrocytes produce a variety of inflammatory cytokines and reactive oxygen species (ROS). These inflammatory factors and ROS amplify their respective toxicities and mediate malignant feedback loop, causing a cascade inflammation response and aggravating the pathological process of PD. CD11b and GFAP are the marker proteins for activations of microglial cells and astrocytes, respectively. Therefore, the effect of the target compounds on the activations of the microglial cells and astrocytes in the substantia nigra, hippocampus, and midbrain areas of MPTP-induced PD mice can be investigated, to explore the mechanism of the anti-PD effect of the target compounds by inhibiting the neuroinflammation.
[…] The experiment included blank control group, MPTP model group, positive control group (caffeic acid phenethyl ester, CAPE), prototype control group (styryl sulfone compounds 3B, 3C, 3D), and 3G, whose structures are shown as above), and target compound group.

[2] = tested on: substantia nigra GFAP; assay: Number of substantia nigra astrocytes with GFAP positive expression in MPTP Parkinson's disease model mouse (immunohistochemistry); type: in vivo; details: for Positive cell number (astrocytes with GFAP positive expression): substantia nigra, MPTP Parkinson's disease model mouse, immunohistochemistry
Method: as §1, §2
Half of experiment mice in each group were taken to separate the midbrain after perfusion and fixation. The tissue was trimmed, and the substantia nigra area was taken to prepare paraffin sections. The GFAP immunohistochemical staining was performed for the statistics of the change in the number of astrocytes with GFAP positive expression. The experiment included blank control group, MPTP model group, positive control group (caffeic acid phenethyl ester, CAPE), prototype control group (styryl sulfone compounds 3B, 3C, 3D, and 3G, whose structures are shown as above), and target compound group.

[3] = tested on: midbrain TH; assay: Midbrain TH expression in MPTP Parkinson's disease model mouse (western-blotting); type: in vivo; details: midbrain total protein, GAPDH internal reference, gavage 21 days after MPTP modeling
Method: as §1
The main cause of PD lies in the pathological changes in the substantia nigra-striatum projection system of the brain and the progressive degeneration and loss of dopaminergic neurons. Tyrosine hydroxylase (TH) is the first enzyme in the biosynthesis of catecholamine neurotransmitters, as well as the first rate-limiting enzyme in the dopamine synthesis. It plays an important role in the synthesis and metabolism of the neurotransmitter DA. The TH in PD animal models and patients has a wide range of abnormal changes, from the gene expression to the enzyme protein content and enzyme activity. The detection of the TH expression in the midbrain and substantia nigra of PD model mice can be used to evaluate the neuroprotective activity of the compound.
(§3) Half of experiment mice in each group were taken to extract the total midbrain protein, and the change in the midbrain TH was determined by western-blotting using GAPDH as the internal reference. The experiment included blank control group, MPTP model group, positive control group (caffeic acid phenethyl ester, CAPE), prototype control group (styryl sulfone compounds 3B, 3C, 3D, and 3G, whose structures are shown as above), and target compound group.

[4] = tested on: fetal rat midbrain neurons; assay: Survival rate of primary midbrain neurons induced by MPP+ (CCK-8); type: cell-based; details: for viability at 5 µM / viability at 10 µM / viability at 20 µM: Rattus norvegicus, Neuron, read-out: Survival rate (%); for survival rate compared with the styryl sulfone prototype compounds: no concentration stated
Text: The main pathological feature of Parkinson's disease (PD) lies in the degeneration and loss of dopaminergic neuron in the substantia nigra-striatum of the midbrain. 1-Methyl-4-phenylpyridinium (MPP+) has a high affinity to dopamine carriers and a selective toxicity on dopaminergic neurons. Thus, MPP+ is one of the most ideal classic neurotoxins for establishing PD cell models. The primary cell culture of fetal rat midbrain is often used to establish PD cell models in recent years. Although it is more cumbersome and has higher technical requirements than cell line culture, it is closer to the pathological characteristics of PD. Thus, a PD cell model is established using neurons from the primary cell culture of fetal rat midbrain under MPP+ induction, to evaluate the protective effect of target compounds on the model neurons.
The midbrain was separated from a fetal rat of a 15-day-pregnant SD rat and cut into pieces, then subjected to trypsin digestion, pipetting, screen filtration, and resuspension steps, and inoculated in a 24-well cell culture plate pre-coated with poly-D-lysine. 12 hours after culture, cytarabine was added to inhibit the growth of glial cells. On the 5th day of neuron growth, the toxin MPP+ can be added to make a PD cell model. When detecting the activity of a target compound, the target compound was pre-incubated with midbrain neurons for 3 h, then MPP+ was added, and after 48 h co-incubation the neuronal viability was detected by CCK-8 method and the neuronal survival rate was calculated to evaluate the inhibitory activity of the target compound on the midbrain neuronal PD damage. The experiment included blank control group, MPP+ model group, positive control group (caffeic acid phenethyl ester, CAPE), prototype control group (styryl sulfone compounds 3B, 3C, 3D, and 3G), and target compound group (prepared according to Examples 1-22 in the invention).

[5] = tested on: midbrain p-α-s; assay: Midbrain p-α-s protein expression in MPTP Parkinson's disease model mouse (western-blotting); type: in vivo; details: midbrain total protein, GAPDH internal reference, gavage 21 consecutive days after MPTP modeling
Method: as §1
Alpha-synuclein is an “unfolded protein” in its natural state. It exists in a monomeric form, and participates in the physiological functions such as the release of neurotransmitters, the establishment of synaptic junctions, and the regulation of synaptic plasticity. Under pathological conditions, more than 90% of alpha-synuclein is phosphorylated at serine of position 129 and converted into phosphorylated alpha-synuclein (p-α-s), thereby forming Lewy bodies. The formation of Lewy bodies is one of the main pathological manifestations and pathological mechanisms for Parkinson's disease, and plays an important role in the formation and development of PD. The detection of the p-α-s expression in the midbrain and substantia nigra of PD model mice can evaluate the neuroprotective activity of the compound.
as §3, with “P-α-s protein expression” for “TH”

[6] = 5 μM, 3 h pre-incubation, 48 h with MPP+
[7] = 10 μM, 3 h pre-incubation, 48 h with MPP+
[8] = 20 μM, 3 h pre-incubation, 48 h with MPP+

Compound	midbrain CD11b protein expression compared with the styryl sulfone prototype compounds [1]	Expression (CD11b/GAPDH) [1]	number of substantia nigra astrocytes with GFAP positive expression compared with the styryl sulfone prototype compounds [2]	Positive cell number (astrocytes with GFAP positive expression) [2]	Expression (TH/GAPDH) [3]	viability at 5 µM [4, 6] [%]	viability at 10 µM [4, 7] [%]	viability at 20 µM [4, 8] [%]	survival rate compared with the styryl sulfone prototype compounds [4]	Expression (p-α-s/GAPDH) [5]	viability at 5 µM ([4]; 48 h) [%]	viability at 10 µM ([4]; 48 h) [%]	viability at 20 µM ([4]; 48 h) [%]	Survival rate (%) [4, 6] [%]	Survival rate (%) [4, 7] [%]	Survival rate (%) [4, 8] [%]
CCN(CC)C(=O)Oc1ccc(/C=C/S(=O)(=O)CCCc2ccccc2)cc1OC(=O)N(CC)CC [Compound C1-1, (E)-4-[2-(3-phenylpropylsulfonyl)ethenyl]-1,2-phenylenebis(diethylcarbamate)]	equivalent or lower	1.11 ± 0.08	significantly lower	56 ± 4	1.20 ± 0.06	69.5 ± 3.89	82.2 ± 3.07	90.3 ± 2.17	significantly increased	0.63 ± 0.06						
CCN(CC)C(=O)Oc1ccc(/C=C/S(=O)(=O)Cc2ccc(C(C)(C)C)cc2)cc1OC(=O)N(CC)CC [Compound G1-1, (E)-4-{2-[(4-t-butylphenyl)mesyl]ethenyl}-1,2-phenylenebis(diethylcarbamate)]	equivalent or lower	0.50 ± 0.06	significantly lower	76 ± 4	0.70 ± 0.03	78.5 ± 3.59	85.9 ± 2.67	91.4 ± 1.59	significantly increased	0.34 ± 0.09						
COc1ccc(CC(=O)Oc2ccc(/C(C)=C/S(=O)(=O)/C=C/c3ccc(OC(=O)N(C)C)c(O[Si](C)(C)CCl)c3)cc2)cc1 [Compound P1-7, 4-{(E)-1-[(E)-3-(chloromethyldimethylsiloxy)-4-(N,N-dimethylcarbamoyloxy)styrylsulfonyl]prop-1-en-2-yl}phenyl-2-(4-methoxyphenyl) acetate]		0.39 ± 0.03		73 ± 5	0.88 ± 0.06					0.27 ± 0.08	79.2 ± 3.72	86.6 ± 2.93	91.2 ± 2.08			
O=C(/C=C/c1ccc(O)c(O)c1)OCCc1ccccc1 [Positive control group, caffeic acid phenethyl ester, reference compound]		1.28 ± 0.10		132 ± 8	0.85 ± 0.04	55 ± 3.78	67.1 ± 2.98	82.6 ± 2.13		0.54 ± 0.12						
CNC(=O)Oc1ccc(/C=C/S(=O)(=O)CC(Cl)c2ccc(Cl)c([N+](=O)[O-])c2)cc1O (stereo not drawn) [Compound E2-2, (E)-4-{2-[2-chloro-2-(4-chloro-3-nitrophenyl)ethylsulfonyl]ethenyl}-2-hydroxyphenyl-N-methylcarbamate]		1.17 ± 0.06		102 ± 5	0.97 ± 0.03					0.45 ± 0.07	58.1 ± 4.27	69.3 ± 2.33	86.1 ± 2.06			
CC(C)N(c1ccc(CCS(=O)(=O)/C=C/c2ccc(OC(=O)N(C)c3ccc(I)cc3)c(OCCOCc3ccccc3)c2)cc1)C(C)C [Compound A1-3, (E)-2-(2-benzyloxyethoxy)-4-{2-[4-(N,N-diisopropylamino)phenylethylsulfonyl]ethenyl}phenyl-N-(4-iodophenyl)-N-methylcarbamate]		1.12 ± 0.06		105 ± 6	0.93 ± 0.07					0.56 ± 0.12	74.3 ± 3.75	89.7 ± 1.95	94.1 ± 1.87			
CC[Si](CC)(Oc1ccc(C(Cl)S(=O)(=O)/C=C/c2ccc(OC(=O)N3CC(C)OC(C)C3)c(OC(=O)c3cccc(Cl)c3OC)c2)cc1)c1ccccc1 (stereo not drawn) [Compound R1-5, (E)-4-{2-[4-(diethylphenylsiloxy)phenylchloromesyl]ethenyl}-2-(3-chloro-2-methoxybenzoyloxy)phenyl-2,6-dimethylmorpholine-4-carboxylate]		1.25 ± 0.08		90 ± 6	0.94 ± 0.03	72.3 ± 2.94	82.5 ± 2.83	90.2 ± 1.76		0.46 ± 0.11						
(E)-2-[(methylamino)methoxy]-4-{2-[1-(4′-nitro-[1,1′-biphenyl]-4-yl)ethylsulfonyl]ethenyl}phenylcarbamate [Compound M1-3]		0.84 ± 0.06		110 ± 5	0.84 ± 0.06					0.42 ± 0.05				76.51 ± 4.82	85.29 ± 2.97	93.26 ± 2.26
O=S(=O)(/C=C/c1ccc(O)c(O)c1)Cc1ccc(C(F)(F)F)cc1 [Compound 3B, (E)-4-{2-[(4-trifluoromethylphenyl)mesyl]ethenyl}benzene-1,2-diol, reference compound]		1.31 ± 0.10		121 ± 10	0.53 ± 0.03	65.9 ± 1.47	76.4 ± 6.54	84.9 ± 2.65		0.93 ± 0.04						
